Test results published in patent US20230416239A1, “COMPOUNDS AND METHODS FOR TREATING A CYTOKINE-MEDIATED DISEASE” (CONSERVATOIRE NATIONAL DES ARTS ET MÉTIERS, priority 2020, published 2023).

Key:
TNFα = TNFα (Homo sapiens, UniProt P01375); test: Immunoassay binding test, TNFa; details: compounds 100 to 0.78 μM; TNFα 10 ng/ml, receptor 100 ng/ml; read-out: BINDING TNF IC50
Method in brief: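 ELISA-type binding test: receptor-coated plates blocked with 2% BSA, then cytokine (six-point dilution series) preincubated 2 h at 37 °C and bound overnight at 4 °C. Detection used biotinylated anti-cytokine antibody and avidin-HRP, read as OD at 450 nm. For IL-6, IL-6Ra was present at 200 ng/ml final.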

TNFa/TNFRI interaction = TNFa/TNFRI interaction (Homo sapiens, UniProt P01375); test: TNFa/TNFRI interaction displacement test; assay type: binding; details: for Displacement (%): compounds at 50 μM, human TNFRI 100 ng/ml; for Displacement EC50 TNFa in presence of compound: Difference: Compound EC50 minus SPD304 EC50;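 for Displacement EC50 TNFa in presence of compound: Difference: SPD304 reference at 20 µM final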
Chain of TNFa/TNFRI interaction (P01375 77-233 limits assumed): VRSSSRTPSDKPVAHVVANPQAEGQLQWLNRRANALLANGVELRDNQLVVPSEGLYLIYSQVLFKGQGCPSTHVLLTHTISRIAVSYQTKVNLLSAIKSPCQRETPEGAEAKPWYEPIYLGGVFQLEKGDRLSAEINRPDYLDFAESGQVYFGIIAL
Method in brief: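 Plates coated overnight at 4° C with human TNFRI (100 ng/ml) and blocked with 2% BSA, then test mixtures were incubated overnight at 4° C. Bound cytokine detected with biotinylated anti-cytokine antibody (2 h, 37° C) and avidin-HRP, read as OD at 450 nm.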

IL-4 = molecular target: T1, IL-4 (Homo sapiens, UniProt P05112); test: Immunoassay binding test, IL-4; details: for IC50: IL-4 400 ng/ml, receptor 100 ng/ml, read-out: BINDING IL4 IC50
T1 sequence (P05112 25-153): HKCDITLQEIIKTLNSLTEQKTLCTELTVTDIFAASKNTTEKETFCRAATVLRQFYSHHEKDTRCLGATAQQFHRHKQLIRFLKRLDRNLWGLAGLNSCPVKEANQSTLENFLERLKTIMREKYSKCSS
Method in brief: (§1)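 Compounds (final 100 to 0.78 μM) were preincubated 2 h at 37 °C with a fixed amount of cytokine; for IL-6, IL-6Ra was also present at 200 ng/ml final. Mixtures were then incubated overnight at 4 °C on receptor-coated plates. Bound cytokine was detected with biotinylated anti-cytokine antibody and avidin-HRP, read as OD at 450 nm.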

IL-13 = IL-13 (Homo sapiens, UniProt P35225); test: Immunoassay binding test, IL-13; details: for IC50: IL-13 400 ng/ml, receptor 100 ng/ml, read-out: BINDING IL13 IC50
Chain of IL-13 (P35225 25-146, species assumed): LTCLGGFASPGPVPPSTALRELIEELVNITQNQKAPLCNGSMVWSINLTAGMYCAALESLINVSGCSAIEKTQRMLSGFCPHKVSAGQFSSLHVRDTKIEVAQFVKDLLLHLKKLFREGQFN
Method in brief: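 Receptor-coated plates; compounds (100 to 0.78 μM final) preincubated 2 h at 37° C with fixed cytokine, then bound to receptor overnight at 4° C. Bound cytokine detected with biotinylated anti-cytokine antibody and avidin-HRP, OD 450 nm.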

IL-6 = IL-6 (Homo sapiens, UniProt P05231); test: Immunoassay binding test, IL-6 (gp130 receptor, IL-6Ra present); details: IL-6Ra 200 ng/ml
Chain of IL-6 (P05231 30-212, species assumed): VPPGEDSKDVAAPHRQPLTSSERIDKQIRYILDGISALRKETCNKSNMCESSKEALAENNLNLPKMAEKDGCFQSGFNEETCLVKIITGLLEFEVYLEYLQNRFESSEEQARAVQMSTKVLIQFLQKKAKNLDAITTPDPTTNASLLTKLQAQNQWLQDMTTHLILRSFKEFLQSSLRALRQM
Method in brief: as §1

Chain of TNFα (P01375 77-233 limits assumed, species assumed): as the sequence (P01375 77-233 limits assumed) above

Structure (SMILES) | IC50 (TNFα) | Displacement (%) (TNFa/TNFRI interaction) | BINDING IL4 % Neutra at 100 μM (IL-4) | IC50 (IL-4) | BINDING IL13 % Neutra at 100 μM (IL-13) | BINDING IL6 % Neutra at 100 μM (IL-6) | IC50 (IL-13) | Displacement EC50 TNFa in presence of compound: Difference (TNFa/TNFRI interaction)
CN(CCCCN(Cc1cccnc1F)Cc1cn(C)c2ccccc12)C1CCCCC1 [Compound 95] | > 50 µM | 16% | 75.3% | > 50 µM | 0% | 0% | – | –
CN(CCCCN(Cc1cccnc1F)Cc1cn(S(=O)(=O)c2ccccc2)c2ncccc12)C1CCCCC1 [Compound 94, N1-cyclohexyl-N4-((2-fluoropyridin-3-yl)methyl)-N1-methyl-N4-((1-(phenylsulfonyl)-1H-pyrrolo[2,3-b]pyridin-3-yl)methyl)butane-1,4-diamine] | 19 µM | 101% | 95.8% | 34.5 µM | 75.2% | 0% | > 50 µM | –
CN1CCN(S(=O)(=O)n2cc(CN(CCCCN(C)C3CCCCC3)Cc3cccnc3F)c3ccccc32)CC1 [Compound 92] | 8.4 µM | 117% | 92.3% | 7.7 µM | 72.0% | 2% | > 50 µM | –
O=S(=O)(c1ccccc1)n1cc(CN(Cc2ccnc(F)c2)CC2CCCN(C3CCCCC3)C2)c2ccccc21 (stereo not drawn) [Compound 19] | 10.9 µM | 169% | 99% | 6.3 µM | 98.1% | 12.6% | > 50 µM | 9.9 ng/mL
CN(CCCCCN(Cc1cccc(F)n1)Cc1cn(S(=O)(=O)c2ccccc2)c2ccccc12)C1CCCCC1 [Compound 54, N1-cyclohexyl-N5-((6-fluoropyridin-2-yl)methyl)-N1-methyl-N5-((1-(phenylsulfonyl)-1H-indol-3-yl)methyl)pentane-1,5-diamine] | 11.7 µM | 85% | 88.4% | 3 µM | 92.5% | 0% | 47.4 µM | –
CN(CCCCCN(Cc1ccnc(F)c1)Cc1cn(S(=O)(=O)c2ccccc2)c2ccccc12)C1CCCCC1 [Compound 53, N1-cyclohexyl-N5-((2-fluoropyridin-4-yl)methyl)-N1-methyl-N5-((1-(phenylsulfonyl)-1H-indol-3-yl)methyl)pentane-1,5-diamine] | 8.4 µM | 115% | 92.7% | 5.2 µM | 91.6% | 0% | 15.2 µM | –
CN(CCCN(Cc1ccncc1)Cc1cn(S(=O)(=O)c2ccccc2)c2ccccc12)C1CCCCC1 [Compound 11] | 4.4 µM | 215% | 97.6% | 6.2 µM | 90.2% | −3% | > 50 µM | –
CN(CCCN(Cc1cccnc1)Cc1cn(-c2cccc(C(F)(F)F)c2)c2ccccc12)C1CCCCC1 [Compound 13] | 4.3 µM | 186% | 97.9% | 5 µM | 85.2% | 8.9% | > 50 µM | 6.4 ng/mL
O=S(=O)(NCCCCN(Cc1cccnc1F)Cc1cn(S(=O)(=O)c2ccccc2)c2ccccc12)N1CCCCC1 [Compound 80] | > 50 µM | 0% | 29.1% | > 100 µM | 0% | 0% | – | –
O=S(=O)(c1ccccc1)n1cc(CN(CCCCNC2CCCCCCC2)Cc2cccnc2F)c2ccccc21 [Compound 75, N′-cyclooctyl-N^4-((2-fluoropyridin-3-yl)methyl)-N^4-((1-(phenylsulfonyl)-1H-indol-3-yl)methyl)butane-1,4-diamine] | 11.2 µM | 147% | 92.0% | 8.5 µM | 85.8% | 0% | > 50 µM | –
O=S(=O)(c1ccccc1)n1cc(CN(CCCCCNC2CCCCC2)Cc2ccnc(F)c2)c2ccccc21 [Compound 47, N1-cyclohexyl-N5-((2-fluoropyridin-4-yl)methyl)-N5-((1-(phenylsulfonyl)-1H-indol-3-yl)methyl)pentane-1,5-diamine] | 8.9 µM | 99% | 93.3% | 5.5 µM | 93.1% | 0% | 17.8 µM | –

Results, then the compound that gave them:

IC50 (TNFα) | Displacement (%) (TNFa/TNFRI interaction) | BINDING IL4 % Neutra at 100 μM (IL-4) | IC50 (IL-4) | BINDING IL13 % Neutra at 100 μM (IL-13) | BINDING IL6 % Neutra at 100 μM (IL-6) | IC50 (IL-13) | Displacement EC50 TNFa in presence of compound: Difference (TNFa/TNFRI interaction) | Structure (SMILES)
7.2 µM | 138% | 90.6% | 6.3 µM | 90.3% | 0% | 26.2 µM | – | CN(CCCCN(Cc1ccnc(F)c1)Cc1cn(S(=O)(=O)c2ccccc2)c2ccccc12)C1CCCCC1 [Compound 50, N1-cyclohexyl-N4-((2-fluoropyridin-4-yl)methyl)-N1-methyl-N4-((1-(phenylsulfonyl)-1H-indol-3-yl)methyl)butane-1,4-diamine]
6.4 µM | 215% | 89.1% | 4.7 µM | 85.1% | 3% | 36 µM | – | CCN(CCCCN(Cc1cccnc1F)Cc1cn(S(=O)(=O)c2ccccc2)c2ccccc12)C1CCCCC1 [Compound 66, N′-cyclohexyl-N′-ethyl-N^4-((2-fluoropyridin-3-yl)methyl)-N^4-((1-(phenylsulfonyl)-1H-indol-3-yl)methyl)butane-1,4-diamine]
4.6 µM | 181% | 96.1% | 5.6 µM | 97.1% | −21.5% | > 50 µM | – | CN(CCCCCN(Cc1ccncc1)Cc1cn(S(=O)(=O)c2ccccc2)c2ccccc12)C1CCCCC1 [Compound 35]
13.4 µM | 120% | 96% | 5.7 µM | 81% | 1.7% | > 50 µM | – | CN(CCN(Cc1ccncc1)Cc1cn(-c2cccc(C(F)(F)F)c2)c2ccccc12)C1CCCCC1 [Compound 31]
> 50 µM | 5% | 69.0% | 5.3 µM | 8% | 9% | – | – | O=S(=O)(c1ccccc1)n1cc(CN(CCCCNCc2cccnc2F)Cc2cn(S(=O)(=O)c3ccccc3)c3ccccc23)c2ccccc21 [Compound 88]
7.2 µM | 138% | 83.2% | 6.3 µM | 39.2% | 0% | > 25 µM | – | CCCCN(CCOCCN(Cc1cccnc1F)Cc1cn(S(=O)(=O)c2ccccc2)c2ccccc12)C1CCCCC1 [Compound 102]
> 50 µM | 11% | 33.5% | > 50 µM | 0% | 0% | – | – | CN(C)S(=O)(=O)NCCCCN(Cc1cccnc1F)Cc1cn(S(=O)(=O)c2ccccc2)c2ccccc12 [Compound 78]
10 µM | 219% | 86.0% | 4.2 µM | 81.6% | 0% | 17.3 µM | – | CCCCN(CCCCN(Cc1cccnc1F)Cc1cn(S(=O)(=O)c2ccccc2)c2ccccc12)C1CCCCC1 [Compound 68, N′-butyl-N′-cyclohexyl-N^4-((2-fluoropyridin-3-yl)methy)-N^4-((1-(phenylsulfonyl)-1H-indol-3-yl)methyl)butane-1,4-diamine]
23 µM | 121% | 96.4% | 5.5 µM | 91.1% | 10.7% | > 50 µM | – | FC(F)(F)c1cccc(-n2cc(CN(CCCNC3CCCCC3)Cc3cccnc3)c3ccccc32)c1 [Compound 10]
